Test results published in patent EP0540143B1, “Compounds and methods for inhibition of HIV and related viruses” (priority 1991, dated 1993).

Columns and labels:
[1] = system: HIV virus; assay: Test A (XTT), MT4 cells infected with HIV; assay type: cell-based; settings: for inhibition at 0.1 µg/mL / inhibition at 1 µg/mL / inhibition at 10 µg/mL / inhibition at 100 µg/mL: Human immunodeficiency virus 1, MT4, Test A; for % inhibition: Test A
Experimental: (§1) Tests A, B, C, and D (XTT)
(§2) MT4 cells in a medium of RPMI 1640, 5% FCS, penicillin/streptomycin are adjusted to 2x10^5 cells/ml and seeded into microplates (96 wells/plate) 100 µl cell suspension/well giving 2x10^4 cells/well. The compound to be tested is made into a 10 mg/ml mixture in DMSO and stored at -20°C. The compound in DMSO is diluted with medium containing 10% DMSO in a 10-fold dilution series to give 1 mg/ml, 10 mg/ml, and […] solutions. Further dilutions to 400, 40, 4 and 0.4 mg/ml are made in medium containing microplates. Fifty µl of the 400, 40, and 4 mg/ml are transferred to the cell-containing microplates with a multi-channel pipette (final concentration: 100, 10, and 1 mg/ml). Finally, 50 µl of virus suspension is added to each well (with a repetitive "Eppendorf" multipipett). Each plate has at least six wells with the following: [Test A: HIV virus; Test B: HIV(II) virus; Test C: SIV virus; Test D: No virus]; with no drug (virus control) and six wells without virus (medium control). The plate is put into a plastic bag and incubated for six days in CO2 atmosphere. To each well in the plate is added 50 µl of XTT ((2,3-bis[2-methoxy-4-nitro-5-sulfophenyl]-5-[(phenylamino)carbonyl]-2H-tetrazolium hydroxide), (1 mg/ml 0.01-0.02 mM N-metyl-phenazonium methosulfate). After six hours of incubation in CO2 atmosphere the plates are covered with adhesive plate sealers and gently mixed on a vortex. Optical densities are determined at a wavelength of 450 nm and a reference wavelength of 650 nm. The percent reduction of cytotoxocity caused by the virus infection is calculated as follows: (OD450 compound - OD450 inf cells)/(OD450 uninf cells - OD450 inf cells)x 100 [formula]

[2] = biological target: recombinant HIV-RT (Human immunodeficiency virus type 1 group M subtype B, UniProt P04585); assay: Test I (HIVRT (rAdt)), direct inhibition of recombinant HIV-RT; assay type: biochemical
Experimental: The compounds were tested for direct inhibitory activity on HIV-RT in a volume of […] recombinant HIV-RT (diluted in virus disruption buffer to give 200.000 cpm).
100 mM Tris-HCl pH 7.6, 100 mM KCl, 4 mM MgCl2, 4 mM DTT, 275 mg/ml BSA, 0.5 mg (rA)n(dT)12-18 and 0.3 mM ^3H- dTTP (specific activity […]). After 60 minutess of incubation 40 ml in duplicate were spotted on paper discs and washed in 5% TCA. After rinsing the paper discs in ethanol they were dried and counted in scintillation fluid.

[3] = system: SIV virus; assay: Test C (XTT), MT4 cells infected with SIV; assay type: cell-based; settings: Simian immunodeficiency virus, MT4, Test C
Experimental: as §1, §2

CC(C)(C)c1csc(NC(=S)NCCc2ccccc2)n1
inhibition at 0.1 µg/mL [1]: 0% | inhibition at 1 µg/mL ([1]; 1 µg/ml): 0% | inhibition at 10 µg/mL ([1]; 10 µg/ml): 9% | inhibition at 100 µg/mL ([1]; 100 µg/ml): 0% | inhibition at 0.1 µg/mL [2]: 8% | inhibition at 1 µg/mL [2]: 8% | inhibition at 10 µg/mL ([2]; 10 µg/ml): 15%

COC(=O)C(=O)c1csc(NC(=S)NCCc2ccccc2)n1
inhibition at 1 µg/mL ([1]; 1 µg/ml): 0% | inhibition at 10 µg/mL ([1]; 10 µg/ml): 0% | inhibition at 100 µg/mL ([1]; 100 µg/ml): 0% | inhibition at 0.1 µg/mL [2]: 1% | inhibition at 1 µg/mL [2]: 1% | inhibition at 10 µg/mL ([2]; 10 µg/ml): 13%

S=C(NCCc1ccccc1)Nc1nc(-c2ccc(Cl)cc2)cs1
inhibition at 1 µg/mL ([1]; 1 µg/ml): 0% | inhibition at 10 µg/mL ([1]; 10 µg/ml): 0% | inhibition at 100 µg/mL ([1]; 100 µg/ml): 18% | inhibition at 0.1 µg/mL [2]: 1% | inhibition at 1 µg/mL [2]: 1% | inhibition at 10 µg/mL ([2]; 10 µg/ml): 1%

S=C(NCCc1ccccc1)Nc1nc(-c2ccc(Br)cc2)cs1
inhibition at 1 µg/mL ([1]; 1 µg/ml): 0% | inhibition at 10 µg/mL ([1]; 10 µg/ml): 0% | inhibition at 100 µg/mL ([1]; 100 µg/ml): 30% | inhibition at 0.1 µg/mL [2]: 1% | inhibition at 1 µg/mL [2]: 1% | inhibition at 10 µg/mL ([2]; 10 µg/ml): 1%

S=C(NCCc1ccccc1)Nc1nc(-c2ccncc2)cs1
inhibition at 1 µg/mL ([1]; 1 µg/ml): 32% | inhibition at 10 µg/mL ([1]; 10 µg/ml): 51% | % inhibition ([1]; 1 µg/ml): 46% | % inhibition ([1]; 10 µg/ml): 65%

CCCCCCCCCCCCCCc1sc(NC(=S)NCCc2ccccc2)nc1-c1ccc(Cl)cc1
inhibition at 1 µg/mL ([1]; 1 µg/ml): 0% | inhibition at 10 µg/mL ([1]; 10 µg/ml): 0% | inhibition at 100 µg/mL ([1]; 100 µg/ml): 33% | inhibition at 0.1 µg/mL [2]: 1% | inhibition at 1 µg/mL [2]: 1% | inhibition at 10 µg/mL ([2]; 10 µg/ml): 1%

S=C(NCCc1ccccc1)Nc1ccccc1
inhibition at 1 µg/mL ([1]; 1 µg/ml): 0% | inhibition at 10 µg/mL ([1]; 10 µg/ml): 25% | inhibition at 100 µg/mL ([1]; 100 µg/ml): 0% | inhibition at 0.1 µg/mL [2]: 1% | inhibition at 1 µg/mL [2]: 16% | inhibition at 10 µg/mL ([2]; 10 µg/ml): 16%

S=C(NCCc1ccccc1)Nc1ccc(Cl)cc1
inhibition at 1 µg/mL ([1]; 1 µg/ml): 17% | inhibition at 10 µg/mL ([1]; 10 µg/ml): 67% | inhibition at 100 µg/mL ([1]; 100 µg/ml): 0% | inhibition at 0.1 µg/mL [2]: 4% | inhibition at 1 µg/mL [2]: 29% | inhibition at 10 µg/mL ([2]; 10 µg/ml): 35%

Fc1ccc(NC(=S)NCCc2ccccc2)cc1
inhibition at 0.1 µg/mL [1]: 0% | inhibition at 1 µg/mL ([1]; 1 µg/ml): 5% | inhibition at 10 µg/mL ([1]; 10 µg/ml): 41% | inhibition at 100 µg/mL ([1]; 100 µg/ml): 0% | % inhibition ([1]; 10 µg/ml): 32%

S=C(NCCc1ccccc1)Nc1ccccc1Cl
inhibition at 1 µg/mL ([1]; 1 µg/ml): 0% | inhibition at 10 µg/mL ([1]; 10 µg/ml): 52% | inhibition at 100 µg/mL ([1]; 100 µg/ml): 0% | inhibition at 0.1 µg/mL [2]: 5% | inhibition at 1 µg/mL [2]: 31% | inhibition at 10 µg/mL ([2]; 10 µg/ml): 50%

NS(=O)(=O)c1ccc(NC(=S)NCCc2ccccc2)cc1
inhibition at 0.1 µg/mL [1]: 3% | inhibition at 1 µg/mL ([1]; 1 µg/ml): 0% | inhibition at 10 µg/mL ([1]; 10 µg/ml): 22%

CCCCOC(=O)c1ccc(NC(=S)NCCc2ccccc2)cc1
inhibition at 0.1 µg/mL [1]: 0% | inhibition at 1 µg/mL ([1]; 1 µg/ml): 0% | inhibition at 10 µg/mL ([1]; 10 µg/ml): 0%

S=C(NCCc1ccccc1)Nc1ccccn1
inhibition at 1 µg/mL ([1]; 1 µg/ml): 0% | inhibition at 10 µg/mL ([1]; 10 µg/ml): 2% | inhibition at 100 µg/mL ([1]; 100 µg/ml): 6%

S=C(NCCc1ccccc1)Nc1ncccn1
inhibition at 1 µg/mL ([1]; 1 µg/ml): 0% | inhibition at 10 µg/mL ([1]; 10 µg/ml): 23% | inhibition at 100 µg/mL ([1]; 100 µg/ml): 22% | inhibition at 0.1 µg/mL [2]: 5% | inhibition at 1 µg/mL [2]: 12% | inhibition at 10 µg/mL ([2]; 10 µg/ml): 6%

S=C(NCCc1ccccc1)Nc1cnccn1
inhibition at 1 µg/mL ([1]; 1 µg/ml): 4% | inhibition at 10 µg/mL ([1]; 10 µg/ml): 100% | inhibition at 100 µg/mL ([1]; 100 µg/ml): 100% | inhibition at 1 µg/mL ([3]; 1 µg/ml): 2% | inhibition at 10 µg/mL ([3]; 10 µg/ml): 20% | inhibition at 100 µg/mL ([3]; 100 µg/ml): 100% | inhibition at 0.1 µg/mL [2]: 1% | inhibition at 1 µg/mL [2]: 27% | inhibition at 10 µg/mL ([2]; 10 µg/ml): 36%

Cc1nnc(NC(=S)NCCc2ccccc2)s1
inhibition at 1 µg/mL ([1]; 1 µg/ml): 3% | inhibition at 10 µg/mL ([1]; 10 µg/ml): 38% | inhibition at 100 µg/mL ([1]; 100 µg/ml): 20% | inhibition at 0.1 µg/mL [2]: 1% | inhibition at 1 µg/mL [2]: 21% | inhibition at 10 µg/mL ([2]; 10 µg/ml): 18%

CCc1nnc(NC(=S)NCCc2ccccc2)s1
inhibition at 1 µg/mL ([1]; 1 µg/ml): 0% | inhibition at 10 µg/mL ([1]; 10 µg/ml): 7% | inhibition at 100 µg/mL ([1]; 100 µg/ml): 17% | inhibition at 0.1 µg/mL [2]: 12% | % inhibition ([2]; 10 µg/ml): 17% | inhibition at 10 µg/mL ([2]; 10 µg/ml): 11%

S=C(NCCc1ccccc1)Nc1ncco1
inhibition at 0.1 µg/mL [1]: 0% | inhibition at 1 µg/mL ([1]; 1 µg/ml): 0% | inhibition at 10 µg/mL ([1]; 10 µg/ml): 0%

S=C(NCCc1ccccc1)Nc1cc[nH]n1
inhibition at 1 µg/mL ([1]; 1 µg/ml): 0% | inhibition at 10 µg/mL ([1]; 10 µg/ml): 0% | inhibition at 100 µg/mL ([1]; 100 µg/ml): 0% | inhibition at 0.1 µg/mL [2]: 1% | inhibition at 1 µg/mL [2]: 8% | inhibition at 10 µg/mL ([2]; 10 µg/ml): 38%

S=C(NCCc1ccccc1)Nc1cnc2ccccc2c1
inhibition at 1 µg/mL ([1]; 1 µg/ml): 0% | inhibition at 10 µg/mL ([1]; 10 µg/ml): 71% | inhibition at 100 µg/mL ([1]; 100 µg/ml): 0%

S=C(NCCc1ccccc1)NCc1ccco1
inhibition at 0.1 µg/mL [1]: 3% | inhibition at 1 µg/mL ([1]; 1 µg/ml): 10% | inhibition at 10 µg/mL ([1]; 10 µg/ml): 7% | inhibition at 0.1 µg/mL [2]: 7% | inhibition at 1 µg/mL [2]: 12% | inhibition at 10 µg/mL ([2]; 10 µg/ml): 10%

Cc1cccc2sc(NC(=S)NCCc3ccccc3)nc12
inhibition at 1 µg/mL ([1]; 1 µg/ml): 8% | inhibition at 10 µg/mL ([1]; 10 µg/ml): 28% | inhibition at 100 µg/mL ([1]; 100 µg/ml): 50% | inhibition at 0.1 µg/mL [2]: 12% | inhibition at 1 µg/mL [2]: 12% | inhibition at 10 µg/mL ([2]; 10 µg/ml): 24%

CCOc1ccc2nc(NC(=S)NCCc3ccccc3)sc2c1
inhibition at 1 µg/mL ([1]; 1 µg/ml): 0% | inhibition at 10 µg/mL ([1]; 10 µg/ml): 5% | inhibition at 100 µg/mL ([1]; 100 µg/ml): 33% | inhibition at 0.1 µg/mL [2]: 1% | inhibition at 1 µg/mL [2]: 5% | inhibition at 10 µg/mL ([2]; 10 µg/ml): 8%

S=C(NCCc1ccccc1)N1CCCc2ccccc21
inhibition at 1 µg/mL ([1]; 1 µg/ml): 0% | inhibition at 10 µg/mL ([1]; 10 µg/ml): 0%

S=C(NCCc1ccccc1)N1CCCCC1
inhibition at 0.1 µg/mL [1]: 0% | inhibition at 1 µg/mL ([1]; 1 µg/ml): 0% | inhibition at 10 µg/mL ([1]; 10 µg/ml): 0%

CN1CCN(C(=S)NCCc2ccccc2)CC1
inhibition at 1 µg/mL ([1]; 1 µg/ml): 0% | inhibition at 10 µg/mL ([1]; 10 µg/ml): 0% | inhibition at 100 µg/mL ([1]; 100 µg/ml): 0%

S=C(NCCc1ccccc1)N1CCOCC1
inhibition at 0.1 µg/mL [1]: 0% | inhibition at 1 µg/mL ([1]; 1 µg/ml): 13% | inhibition at 10 µg/mL ([1]; 10 µg/ml): 9%

COc1ccc(CCNC(=S)Nc2nccs2)cc1OC
inhibition at 10 µg/mL ([1]; 10 µg/ml): 54% | inhibition at 100 µg/mL ([1]; 100 µg/ml): 0% | % inhibition ([1]; 10 µg/ml): 58%

S=C(NCCc1ccc(Cl)cc1)Nc1nccs1
inhibition at 10 µg/mL ([1]; 10 µg/ml): 79% | inhibition at 100 µg/mL ([1]; 100 µg/ml): 73% | % inhibition ([1]; 10 µg/ml): 93% | % inhibition ([1]; 100 µg/ml): 71%

Fc1cccc(Cl)c1CCNC(=S)Nc1nccs1
inhibition at 1 µg/mL ([1]; 1 µg/ml): 100% | % inhibition ([1]; 1 µg/ml): 98% | % inhibition ([1]; 10 µg/ml): 52% | inhibition at 0.1 µg/mL [2]: 43% | inhibition at 1 µg/mL [2]: 77% | inhibition at 10 µg/mL ([2]; 10 µg/ml): 92%
